# In publication PMC10285648, “iTAG an optimized IMiD-induced degron for targeted protein degradation in human and murine cells” (iScience, 2023):
# Peptide text beside a SMILES is read from it. * marks the point of attachment. Cbz = O=C(OCc1ccccc1)*
# Legend:
# N-terminally tagged EGFP = assay: Flow cytometry of N-terminally tagged EGFP in SUM159 (iTAG, SD, dTAG); type: cell-based, human; details: SUM159, 4h, normalized values; dTAG-13 for FKBP12 F36V, CC220 for SD and iTAG
# Protocol: (§1) The protein lysates were probed for HA using western blotting. […] The protein lysates were probed for HA using western blotting. […] Median EGFP intensity was measured in each condition using flow cytometry. (3 independent experiments, represented as mean ± SD).
# As we were finalizing our study on iTAG, a similar IMiD based degron was publish by the Ebert group.[28] The SuperDegron (SD) a 60 amino acid tag based on a chimera of Aiolos/ZFP91 was used to generate degradable chimeric antigen receptors (CAR).[28]
# (§2) For the pHAGE-PGK constructs: DCD23, SuperDegron and FKBP12^F36V were separately cloned into a pHAGE-PGK DEST backbone. cDNA encoding the indicated protein was then cloned from pENTR221 into the pHAGE-PGK-DCD23, pHAGE-PGK-SuperDegron or pHAGE-PGK-FKBPF36V DEST vector using Gateway cloning. SUM159 cells were transduced with the indicated lentivirus and selected with puromycin.
# [1] = test system: N-terminally tagged cMYC, RBM39, BRD4 (Flag-HA-DCD23 or Flag-HA-FKBP12^[F36V]); assay: Western blotting, iTAG versus dTAG fused proteins in SUM159; type: cell-based, human
# Protocol: The fusion constructs were stably expressed in SUM159 cells and loss of protein was determined by western blotting.
# as §1
# The dTAG system has also been adapted to direct targets to the E3 CRL2^VHL using the PROTAC dTAG^V-1^16. […] We evaluated the degradation N-terminally tagged cMYC and RBM39 dTAG^V-1, we included BRD4 as a control as it was reported to be a well degraded target in the initial dTAG optimization (Figure 3C).[15]
# as §2
# Cells were lysed with SDS lysis buffer (2% SDS, 10% Glycerol, 50mM Tris pH 6.8) and boiled at 95°C for 30min. Protein concentration was measured using Pierce BCA Protein Assay Kit (ThermoFischer) following manufacturer’s recommendations. Samples were ran in NuPAGETM 10% Bis-Tris Midi electrophoresis gels (Invitrogen) using NuPAGETM MES SDS running buffer (ThermoFischer Scientific). Proteins were subsequently transferred to an Immobilon-P polyvinylidene Difluoride (PVDF) membrane (Merck Millipore) using the wet-transfer method (Bio-Rad) in a transfer buffer consisting of 20% (v/v) methanol and 10% protein electrophoresis buffer (24.77 mM Tris and 0.192 M glycine).
# (§3) For western blotting membranes were blocked in a solution of 5% (w/v) bovine serum albumin (BSA; Sigma-Aldrich) dissolved in TBS-0.1% Tween 20 (Sigma-Aldrich) then incubated at 4°C overnight with the primary antibodies diluted in 5% (w/v) BSA/TBS-T. The membranes where then washed and incubated with anti-mouse and/or anti-rabbit secondary antibodies (LI-COR Biosciences) for 2h at RT diluted in 5% (w/v) BSA/TBS-T then washed and imaged using the LI-COR Odyssey (LI-COR Biosciences). Images were analyzed using Image Studio Lite software (LI-COR Biosciences).
# cMYC-EGFP-DCD23 = assay: Degradation of cMYC-EGFP-DCD23 in HMEC (flow cytometry, western blotting); type: cell-based, human; details: co-treatment with CC220 (10μM), 4h, western blotting
# From the text: (§4) To systematically delineate the optimal DCD/degrader combination for targeted protein degradation, we undertook a matrix approach evaluating all 23 DCD tags against 6 small molecule degraders. […] To control for any potential off-target effects of the IMiD/CeLMOD agents that could indirectly affect the target of interest, we designed controls in which the specific DCD and the EGFP sequences were interspaced by a P2A ribosomal “skipping” sequence,[32] leading to separate translation of the DCD and the target protein (Figure 1A). These constructs were then inserted into a doxycycline-inducible lentiviral vector system and stably expressed in hTERT immortalized human mammary epithelial cells (HMEC), a suitable model to assess the functional consequences of cMYC degradation. cMYC was tagged at the C-terminus end for the initial screening experiments.
# (§5) Figure 1 Design and experimental evaluation of the DCD tags (A) Representation of the experimental pipeline used to evaluate the different DCD constructs. […] Median EGFP intensity was measured in each condition using flow cytometry (3 independent experiments, normalized to the control and represented as mean ± SD). […] The protein lysates were probed for cMYC levels using western blotting. […] Target loss was evaluated either by measuring EGFP median intensity using flow cytometry or western blotting for cMYC protein (3 independent experiments, normalized to the control and represented as mean ± SD). […] Target loss was evaluated as in (D) (3 independent experiments, normalized to the control and represented as mean ± SD). […] Protein lysates were collected and probed for cMYC and p21 using western blotting. […] Protein lysates were collected and probed for cMYC and p21 using western blotting. […] These were left out as controls with no test substance.
# (§6) Following degrader treatment cells were collected and DAPI was added to the cell suspension at 1 μg/mL to allow the exclusion of dead cells. EGFP signal was measured using BD LSR II flow cytometer (BD Biosciences). FlowJo 10 Software (FlowJo) was used for data processing.
# Cells were lysed with SDS lysis buffer (2% SDS, 10% Glycerol, 50mM Tris pH 6.8) and boiled at 95°C for 30min. Protein concentration was measured using Pierce BCA Protein Assay Kit (ThermoFischer) following manufacturer’s recommendations. Samples were ran in NuPAGETM 10% Bis-Tris Midi electrophoresis gels (Invitrogen) using NuPAGETM MES SDS running buffer (ThermoFischer Scientific).
# as §3
# cMYC-EGFP-DCD19 = assay: Flow cytometry of EGFP signal, cMYC-EGFP-DCD19 in HMEC; type: cell-based, human; details: 10uM, 4h
# From the text: as §4, §5, §6
# CT26 cells = assay: Quantitative multiplexed proteomics of CT26 cells treated with thalidomide derivatives; type: cell-based, mouse; details: CT26, 10uM, 24h
# Protocol: After showing that iTAG was active in mouse cells, we explored whether more potential degrons were active in the murine context. […]2216[50] and profiled the cellular proteomes using quantitative multiplexed proteomics. […] Data are plotted as Log2 fold change relative to DMSO versus Log10 of p value. (B) Proteome of CT26 CRBN KO cells treated with 10uM of FPFT2216 for 24h analyzed and plotted as in (A). (C) HEK293T, CT26, AT3 and 4434 cells treated with 10uM of FPFT2216 for 24h in presence of absence of MLN4924. […] were analyzed using western blotting. (D) Structural representation of PDE6D with the critical […] highlighted in red. (E) CT26, AT3 and 4434 cells transiently expressing WT or […] mutant Flag-PDE6D treated with 10uM of FPFT2216 for 16h. (F) Docking model for FPFT-2216 (in magenta) in the binding site of mouse CRBN (in orange). H-bond interactions are shown as cyan dashes. (G) Binding model for the ternary complex formed by mouse CRBN (in orange), mouse PDE6D (in cyan) and FPFT-2216 (in magenta), showing the […] loop close to the molecular glue. Samples for quantitative proteomics were prepared using the […] workflow.[60] Briefly, the cell pellets were lysed in a buffer containing 150 μL 0.1 M triethylammonium bicarbonate (TEAB), 1% sodium deoxycholate (SDC), 10% isopropanol, 50mM NaCl, 5 mM tris-2-carboxyethyl phosphine (TCEP), 10 mM iodoacetamide (IAA), universal nuclease, and supplemented with protease and phosphatase inhibitors. Samples were bath sonicated for 5 min, incubated at RT for 45 min and protein concentration was measured with the Bradford Protein Assay (Biorad) according to manufacturer instructions. Aliquots containing 30 μg of total protein were used for protein digestion. The resultant peptides were labeled with a tandem mass tag (TMTpro) multiplex reagent vial (Thermo Scientific) according to the manufacturer instructions. All the TMT-labelled samples were combined in equal amounts to a single tube. The TMT-peptide mixture was acidified with 1% formic acid and the precipitated SDC was removed by centrifugation. The sample was then dried with a centrifugal vacuum concentrator. LC-MS analysis was performed on the Dionex Ultimate 3000 UHPLC system coupled with the Orbitrap Lumos mass spectrometer (Thermo Scientific). Samples were analyzed with the EASY-Spray C18 capillary column (75 μm × 50 cm, 2 μm) at 50°C. […] MS3 quantification was obtained with higher-energy collisional dissociation (HCD) fragmentation of the top 5 most abundant CID fragments isolated with synchronous precursor selection (SPS). […] The SEQUEST-HT search engine was used to analyze the acquired mass spectra in Proteome Discoverer 2.4 (Thermo Scientific) for protein identification and quantification. […]
compound,measurement,setting,value
"FKBP12^[F36V]: mutant FKBP12 protein tag of the dTAG system, degraded with dTAG-13",DC50,N-terminally tagged EGFP,0.38 nM
same,DCmax,N-terminally tagged EGFP,95%
CC[C@H](C(=O)N1CCCC[C@H]1C(=O)O[C@H](CCc1ccc(OC)c(OC)c1)c1ccccc1OCC(=O)NCCCCCCOc1cccc2c1C(=O)N(C1CCC(=O)NC1=O)C2=O)c1cc(OC)c(OC)c(OC)c1 (stereo partly drawn) [dTAG-13],concentrations at which targets are degraded,"[1]; SUM159, dTAG-13 on dTAG, CC220 on iTAG",less pronounced or even not observed at high concentrations
same,time of onset of degradation of cMYC and RBM39,"[1]; SUM159, dTAG-13 on dTAG, CC220 on iTAG, 1, 2 or 4h",moderate degradation only after 4h
CC(C)C[C@@H](C=O)NC(=O)[C@H](CC(C)C)NC(=O)[C@H](CC(C)C)NC(=O)OCc1ccccc1 [MG132] (Cbz-Leu-Leu-Leu-aldehyde),effect on CC220-induced cMYC degradation,cMYC-EGFP-DCD23,inhibited cMYC degradation
O=C1CCC(N2C(=O)c3ccccc3C2=O)C(=O)N1 (stereo not drawn) [Thalidomide],loss of cMYC-EGFP signal,cMYC-EGFP-DCD19,robust loss of cMYC-EGFP signal
NS(=O)(=O)OC[C@@H]1C[C@@H](n2ccc3c(N[C@H]4CCc5ccccc54)ncnc32)C[C@@H]1O [MLN4924],effect on CC220-induced cMYC degradation,cMYC-EGFP-DCD23,inhibited cMYC degradation
CC[C@H](C(=O)N1CCCC[C@H]1C(=O)O[C@H](CCc1ccc(OC)c(OC)c1)c1ccccc1OCC(=O)NCCCCCCC(=O)N[C@H](C(=O)N1C[C@H](O)C[C@H]1C(=O)N[C@@H](C)c1ccc(-c2scnc2C)cc1)C(C)(C)C)c1cc(OC)c(OC)c(OC)c1 [dTAG^V-1],degradation compared between dTAG variants,"[1]; SUM159, BRD4, cMYC, RBM39, 4h",more robust degradation compared to dTAG-13
Nc1cccc2c1C(=O)N(C1CCC(=O)NC1=O)C2=O (stereo not drawn) [Pomalidomide],loss of cMYC-EGFP signal,cMYC-EGFP-DCD19,robust loss of cMYC-EGFP signal
O=C1CCC(N2Cc3cc(CNC(=O)C(F)(F)c4ccc(Cl)cc4)ccc3C2=O)C(=O)N1 (stereo not drawn) [CC90009],effect on cellular proteome,CT26 cells,no impact
"Cc1nc2cccc(N)c2c(=O)n1C1CCC(=O)NC1=O (stereo not drawn) [CC122, Avadomide]",loss of cMYC-EGFP signal,cMYC-EGFP-DCD19,robust loss of cMYC-EGFP signal
O=C1CCC(N2C(=O)c3ccc(NS(=O)(=O)c4ccccc4OC(F)(F)F)cc3C2=O)C(=O)N1 (stereo not drawn) [StJude6989],effect on cellular proteome,CT26 cells,no impact
